Measurements taken from patent US10501425B2, “Microbiocidal oxadiazole derivatives” (SYNGENTA PARTICIPATIONS AG, priority 2015, dated 2019).

What was measured:
[1] = system: Puccinia recondita f. Sp. Tritici; assay: Puccinia recondita f. sp. tritici / wheat / leaf disc preventative (brown rust); format: in vivo; conditions: foliar, 200 ppm in the applied formulation, wheat leaf segments cv. Kanzler, preventative (inoculated 1 day after application), compared to untreated, read-out: disease control
Experimental: Leaf disks or leaf segments of various plant species are cut from plants grown in a greenhouse. The cut leaf disks or segments are placed in multiwell plates (24-well format) onto water agar. The leaf disks are sprayed with a test solution before (preventative) or after (curative) inoculation. Compounds to be tested are prepared as DMSO solutions (max. 10 mg/ml) which are diluted to the appropriate concentration with 0.025% Tween20 just before spraying. The inoculated leaf disks or segments are incubated under defined conditions (temperature, relative humidity, light, etc.) according to the respective test system. A single evaluation of disease level is carried out 3 to 14 days after inoculation, depending on the pathosystem. Percent disease control relative to the untreated check leaf disks or segments is then calculated. Wheat leaf segments cv. Kanzler were placed on agar in multiwell plates (24-well format) and sprayed with the formulated test compound diluted in water. The leaf disks were inoculated with a spore suspension of the fungus 1 day after application. The inoculated leaf segments were incubated at 19° C. and 75% relative humidity (rh) under a light regime of 12 hours light/12 hours darkness in a climate cabinet and the activity of a compound was assessed as percent disease control compared to untreated when an appropriate level of disease damage appears in untreated check leaf segments (7 to 9 days after application). The following compounds at 200 ppm in the applied formulation give at least 80% disease control in this test when compared to untreated control leaf disks under the same conditions, which show extensive disease development.

[2] = system: Puccinia recondita f. Sp. Tritici; assay: Puccinia recondita f. sp. tritici / wheat / leaf disc curative (brown rust); format: in vivo; conditions: foliar, 24 h, 200 ppm in the applied formulation, wheat leaf segments cv. Kanzler, curative (applied 1 day after inoculation), compared to untreated, read-out: disease control
Experimental: Leaf disks or leaf segments of various plant species are cut from plants grown in a greenhouse. The cut leaf disks or segments are placed in multiwell plates (24-well format) onto water agar. The leaf disks are sprayed with a test solution before (preventative) or after (curative) inoculation. Compounds to be tested are prepared as DMSO solutions (max. 10 mg/ml) which are diluted to the appropriate concentration with 0.025% Tween20 just before spraying. The inoculated leaf disks or segments are incubated under defined conditions (temperature, relative humidity, light, etc.) according to the respective test system. A single evaluation of disease level is carried out 3 to 14 days after inoculation, depending on the pathosystem. Percent disease control relative to the untreated check leaf disks or segments is then calculated.
Wheat leaf segments cv. Kanzler are placed on agar in multiwell plates (24-well format). The leaf segments are then inoculated with a spore suspension of the fungus. Plates were stored in darkness at 19° C. and 75% relative humidity. The formulated test compound diluted in water was applied 1 day after inoculation. The leaf segments were incubated at 19° C. and 75% relative humidity under a light regime of 12 hours light/12 hours darkness in a climate cabinet and the activity of a compound was assessed as percent disease control compared to untreated when an appropriate level of disease damage appears in untreated check leaf segments (6 to 8 days after application).
The following compounds at 200 ppm in the applied formulation give at least 80% disease control in this test when compared to untreated control leaf disks under the same conditions, which show extensive disease development.

[3] = system: Glomerella lacenarium (Colletotrichum lagenarium); assay: Glomerella lagenarium liquid culture / cucumber / preventative (anthracnose); format: cell-based; conditions: Colletotrichum orbiculare; 20 ppm in the applied formulation; liquid culture (PDB), growth inhibition measured photometrically 3 to 4 days after application; compared to untreated; read-out: disease control
Experimental: Mycelia fragments or conidia suspensions of a fungus prepared either freshly from liquid cultures of the fungus or from cryogenic storage, are directly mixed into nutrient broth. DMSO solutions of the test compound (max. 10 mg/ml) are diluted with 0.025% Tween20 by a factor of 50 and 10 μl of this solution is pipetted into a microtiter plate (96-well format). The nutrient broth containing the fungal spores/mycelia fragments is then added to give an end concentration of the tested compound. The test plates are incubated in the dark at 24° C. and 96% relative humidity. The inhibition of fungal growth is determined photometrically after 2 to 7 days, depending on the pathosystem, and percent antifungal activity relative to the untreated check is calculated.
Conidia of the fungus from cryogenic storage are directly mixed into nutrient broth (PDB—potato dextrose broth). After placing a (DMSO) solution of test compound into a microtiter plate (96-well format), the nutrient broth containing the fungal spores is added.
The following compounds at 20 ppm in the applied formulation give at least 80% disease control in this test when compared to untreated control under the same conditions, which show extensive disease development.

CC(C)C(=O)NCc1ccc(-c2noc(C(F)(F)F)n2)cn1 [Compound 1.66, 2-methyl-N-[[5-[5-(trifluoromethyl)-1,2,4-oxadiazol-3-yl]-2-pyridyl]methyl]propanamide]
≥ 80%: pest or weed control at 200 ppm [1] | pest or weed control at 200 ppm [2] | inhibition of growth at 20 ppm [3]

CCCC(=O)NCc1ccc(-c2noc(C(F)(F)F)n2)cn1 [Compound 1.67, N-[[5-[5-(trifluoromethyl)-1,2,4-oxadiazol-3-yl]-2-pyridyl]methyl]butanamide]
≥ 80%: pest or weed control at 200 ppm [1] | pest or weed control at 200 ppm [2] | inhibition of growth at 20 ppm [3]

COCC(=O)NCc1ccc(-c2noc(C(F)(F)F)n2)cn1 [Compound 1.69, 2-methoxy-N-[[5-[5-(trifluoromethyl)-1,2,4-oxadiazol-3-yl]-2-pyridyl]methyl]acetamide]
≥ 80%: pest or weed control at 200 ppm [1] | pest or weed control at 200 ppm [2] | inhibition of growth at 20 ppm [3]

CCC(C)C(=O)NCc1ccc(-c2noc(C(F)(F)F)n2)cn1 (stereo not drawn) [Compound 1.71, 2-methyl-N-[[5-[5-(trifluoromethyl)-1,2,4-oxadiazol-3-yl]-2-pyridyl]methyl]butanamide]
≥ 80%: pest or weed control at 200 ppm [1] | pest or weed control at 200 ppm [2] | inhibition of growth at 20 ppm [3]

COCCCC(=O)NCc1ccc(-c2noc(C(F)(F)F)n2)cn1 [Compound 1.72, 4-methoxy-N-[[5-[5-(trifluoromethyl)-1,2,4-oxadiazol-3-yl]-2-pyridyl]methyl]butanamide]
≥ 80%: pest or weed control at 200 ppm [1] | pest or weed control at 200 ppm [2] | inhibition of growth at 20 ppm [3]

O=C(CC(F)(F)F)NCc1ccc(-c2noc(C(F)(F)F)n2)cn1 [Compound 1.74, 3,3,3-trifluoro-N-[(5-[5-(trifluoromethyl)-1,2,4-oxadiazol-3-yl]-2-pyridyl]methyl]propanamide]
≥ 80%: pest or weed control at 200 ppm [1] | pest or weed control at 200 ppm [2] | inhibition of growth at 20 ppm [3]

CC(=O)NCc1ccc(-c2noc(C(F)(F)F)n2)cn1 [Compound 1.75, N-[[5-[5-(trifluoromethyl)-1,2,4-oxadiazol-3-yl]-2-pyridyl]methyl]acetamide]
≥ 80%: pest or weed control at 200 ppm [1] | pest or weed control at 200 ppm [2] | inhibition of growth at 20 ppm [3]

COCCC(=O)NCc1ccc(-c2noc(C(F)(F)F)n2)c(F)c1 [Compound 1.79, N-[[3-fluoro-4-[5-(trifluoromethyl)-1,2,4-oxadiazol-3-yl]phenyl]methyl]-3-methoxy-propanamide]
≥ 80%: pest or weed control at 200 ppm [1] | pest or weed control at 200 ppm [2] | inhibition of growth at 20 ppm [3]

CC(C)(C)COC(=O)NCc1ccc(-c2noc(C(F)(F)F)n2)cc1 [Compound 2.18, 2,2-dimethylpropyl N-[[4-[5-(trifluoromethyl)-1,2,4-oxadiazol-3-yl]phenyl]methyl]carbamate]
≥ 80%: pest or weed control at 200 ppm [1] | pest or weed control at 200 ppm [2] | inhibition of growth at 20 ppm [3]

CCCOC(=O)NCc1ccc(-c2noc(C(F)(F)F)n2)cn1 [Compound 2.20, propyl N-[[5-[5-(trifluoromethyl)-1,2,4-oxadiazol-3-yl]-2-pyridyl]methyl]carbamate]
≥ 80%: pest or weed control at 200 ppm [1] | pest or weed control at 200 ppm [2] | inhibition of growth at 20 ppm [3]

CC#CCOC(=O)NCc1ccc(-c2noc(C(F)(F)F)n2)cn1 [Compound 2.21, but-2-ynyl N-[[5-[5-(trifluoromethyl)-1,2,4-oxadiazol-3-yl]-2-pyridyl]methyl]carbamate]
≥ 80%: pest or weed control at 200 ppm [1] | pest or weed control at 200 ppm [2] | inhibition of growth at 20 ppm [3]

CC(C)COC(=O)NCc1ccc(-c2noc(C(F)(F)F)n2)cn1 [Compound 2.22, isobutyl N-[[5-[5-(trifluoromethyl)-1,2,4-oxadiazol-3-yl]-2-pyridyl]methyl]carbamate]
≥ 80%: pest or weed control at 200 ppm [1] | pest or weed control at 200 ppm [2] | inhibition of growth at 20 ppm [3]

COCCOC(=O)NCc1ccc(-c2noc(C(F)(F)F)n2)cn1 [Compound 2.24, 2-methoxyethyl N-[[5-[5-(trifluoromethyl)-1,2,4-oxadiazol-3-yl]-2-pyridyl]methyl]carbamate]
≥ 80%: pest or weed control at 200 ppm [1] | pest or weed control at 200 ppm [2] | inhibition of growth at 20 ppm [3]

C=CCOC(=O)NCc1ccc(-c2noc(C(F)(F)F)n2)cn1 [Compound 2.25, allyl N-[[5-[5-(trifluoromethyl)-1,2,4-oxadiazol-3-yl]-2-pyridyl]methyl]carbamate]
≥ 80%: pest or weed control at 200 ppm [1] | pest or weed control at 200 ppm [2] | inhibition of growth at 20 ppm [3]

CCCCOC(=O)NCc1ccc(-c2noc(C(F)(F)F)n2)cn1 [Compound 2.26, butyl N-[[5-[5-(trifluoromethyl)-1,2,4-oxadiazol-3-yl]-2-pyridyl]methyl]carbamate]
≥ 80%: pest or weed control at 200 ppm [1] | pest or weed control at 200 ppm [2] | inhibition of growth at 20 ppm [3]

O=C(NCc1ccc(-c2noc(C(F)(F)F)n2)cn1)OCCCCCl [Compound 2.28, 4-chlorobutyl N-[[5-[5-(trifluoromethyl)-1,2,4-oxadiazol-3-yl]-2-pyridyl]methyl]carbamate]
≥ 80%: pest or weed control at 200 ppm [1] | pest or weed control at 200 ppm [2] | inhibition of growth at 20 ppm [3]

CC(C)OC(=O)NCc1ccc(-c2noc(C(F)(F)F)n2)cn1 [Compound 2.29, isopropyl N-[[5-[5-(trifluoromethyl)-1,2,4-oxadiazol-3-yl]-2-pyridyl]methyl]carbamate]
≥ 80%: pest or weed control at 200 ppm [1] | pest or weed control at 200 ppm [2] | inhibition of growth at 20 ppm [3]

O=C(NCc1ccc(-c2noc(C(F)(F)F)n2)cn1)OCCF [Compound 2.30, 2-fluoroethyl N-[[5-[5-(trifluoromethyl)-1,2,4-oxadiazol-3-yl]-2-pyridyl]methyl]carbamate]
≥ 80%: pest or weed control at 200 ppm [1] | pest or weed control at 200 ppm [2] | inhibition of growth at 20 ppm [3]

O=C(NCc1ccc(-c2noc(C(F)(F)F)n2)cn1)OCCCCl [Compound 2.31, 3-chloropropyl N-[[5-[5-(trifluoromethyl)-1,2,4-oxadiazol-3-yl]-2-pyridyl]methyl]carbamate]
≥ 80%: pest or weed control at 200 ppm [1] | pest or weed control at 200 ppm [2] | inhibition of growth at 20 ppm [3]

CCOC(=O)NCc1ccc(-c2noc(C(F)(F)F)n2)cn1 [Compound 2.32, ethyl N-[[5-[5-(trifluoromethyl)-1,2,4-oxadiazol-3-yl]-2-pyridyl]methyl]carbamate]
≥ 80%: pest or weed control at 200 ppm [1] | pest or weed control at 200 ppm [2] | inhibition of growth at 20 ppm [3]

O=C(NCc1ccc(-c2noc(C(F)(F)F)n2)cn1)OCCCl [Compound 2.33, 2-chloroethyl N-[[5-[5-(trifluoromethyl)-1,2,4-oxadiazol-3-yl]-2-pyridyl]methyl]carbamate]
≥ 80%: pest or weed control at 200 ppm [1] | pest or weed control at 200 ppm [2] | inhibition of growth at 20 ppm [3]

C#CCOC(=O)NCc1ccc(-c2noc(C(F)(F)F)n2)cn1 [Compound 2.35, prop-2-ynyl N-[[5-[5-(trifluoromethyl)-1,2,4-oxadiazol-3-yl]-2-pyridyl]methyl]carbamate]
≥ 80%: pest or weed control at 200 ppm [1] | pest or weed control at 200 ppm [2] | inhibition of growth at 20 ppm [3]
